Data: patent US11840686B2, “Modulation of prekallikrein (PKK) expression” (Ionis Pharmaceuticals, Inc., priority 2013, dated 2023)
Strand notation (5' to 3'): a small letter for the sugar, then the base; units joined by * are phosphorothioate-linked, units joined directly phosphodiester-linked; [ ] holds rarer units or linkages, { } end groups; capitals alone tell only the bases. e = 2'-O-(2-methoxyethyl) (MOE); [5mC] = 5-methylcytosine; d = 2'-deoxy (DNA)

Assays:
human PKK mRNA [1] = experiment: Antisense inhibition of human PKK mRNA in HepaRG cells, 5,000 nM (Example 2); type: cell-based
Method in brief: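 Percent inhibition of PKK mRNA is relative to untreated control, with qRT-PCR (probe set RTS3454) values adjusted to total RNA by RIBOGREEN. Oligonucleotides, fully phosphorothioate 2′-MOE gapmers, were delivered at 5,000 nM by electroporation into 20,000 HepaRG cells/well for about 24 h.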

human PKK mRNA [2] = experiment: Dose-dependent antisense inhibition of human PKK in HepaRG cells, 0.19-5.00 uM (Example 5); type: cell-based; conditions: for percent inhibition of PKK mRNA, 0.19 μM: 0.19 μM antisense oligonucleotide; for percent inhibition of PKK mRNA, 0.56 μM: 0.56 μM antisense oligonucleotide; for percent inhibition of PKK mRNA, 1.67 μM: 1.67 μM antisense oligonucleotide; for percent inhibition of PKK mRNA, 5.00 μM: 5.00 μM antisense oligonucleotide
Method in brief: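 PKK mRNA knockdown was measured by real-time PCR (primer probe set RTS3454) about 16 h after electroporating 20,000 HepaRG cells per well with oligonucleotide at four doses from 0.19 to 5.00 μM. Levels were adjusted to RIBOGREEN-measured total RNA, and IC50 values were calculated.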

[3] = HepaRG cells, electroporation, approximately 16 hours, Table 36
[4] = 4 point dose response, HepaRG cells, Table 36
[5] = Table 13, human PKK mRNA in HepaRG cells, 5-10-5 gapmers
[6] = Table 34, HepaRG, electroporation, ~16 h
[7] = Table 34, PKK mRNA, HepaRG, electroporation, ~16 h
[8] = human PKK mRNA in HepaRG cells, 5-10-5 gapmers, Table 14
[9] = HepaRG cells, electroporation, approximately 16 hours, Table 38
[10] = 4 point dose response, HepaRG cells, Table 38

| Substance | percent inhibition of PKK at 0.19 μM (human PKK mRNA [2]; [3]) [%] | percent inhibition of PKK at 0.56 μM (human PKK mRNA [2]; [3]) [%] | percent inhibition of PKK at 1.67 μM (human PKK mRNA [2]; [3]) [%] | percent inhibition of PKK at 5.00 μM (human PKK mRNA [2]; [3]) [%] | IC50 (human PKK mRNA [2]; [4]) [nM] | percent inhibition of PKK mRNA, 0.19 μM (human PKK mRNA [2]; HepaRG cells) [%] | percent inhibition of PKK mRNA, 0.56 μM (human PKK mRNA [2]; HepaRG cells) [%] | percent inhibition of PKK mRNA, 1.67 μM (human PKK mRNA [2]; HepaRG cells) [%] | percent inhibition of PKK mRNA, 5.00 μM (human PKK mRNA [2]; HepaRG cells) [%] | IC50 (human PKK mRNA [2]; HepaRG cells, 0.19-5.00 μM) [nM] | also measured |
| --- | --- | --- | --- | --- | --- | --- | --- | --- | --- | --- | --- |
| 548770 (antisense eT*eA*eA*e[5mC]*dA*dG*dT*dA*dT*d[5mC]*dA*d[5mC]*dT*eG*eT*e[5mC]*e[5mC]) [compound 548770] | 26 | 54 | 77 | 91 | 500 | 9 | 0 | 61 | 92 | 1700 | % inhibition (human PKK mRNA [1]; human PKK mRNA, HepaRG cells, 5,000 nM antisense oligonucleotide, Table 18): 92% |
| 546829 (eA*eA*e[5mC]*eA*eG*dT*dA*dT*d[5mC]*dA*d[5mC]*dT*dG*dT*dA*e[5mC]*eT*eA*eG*eT; antisense) [compound 546829] | – | – | – | – | – | – | – | – | – | – | % inhibition (human PKK mRNA [1]; [5]): 94%; percent inhibition of PKK at 0.19 μM (human PKK mRNA [2]; [6]): 3%; percent inhibition of PKK at 0.56 μM (human PKK mRNA [2]; [6]): 30%; percent inhibition of PKK at 1.67 μM (human PKK mRNA [2]; [6]): 73%; percent inhibition of PKK at 5.00 μM (human PKK mRNA [2]; [6]): 88%; IC50 (human PKK mRNA [2]; [7]): 1000 nM |
| 547585 (eA*eA*e[5mC]*eA*eG*dT*dA*dT*d[5mC]*dA*d[5mC]*dT*dG*dT*d[5mC]*e[5mC]*eT*eA*eT*eA; antisense) [compound 547585] | – | – | – | – | – | 0 | 46 | 89 | 93 | 800 | % inhibition (human PKK mRNA [1]; [8]): 85%; percent inhibition of PKK at 0.19 μM (human PKK mRNA [2]; [9]): 42%; percent inhibition of PKK at 0.56 μM (human PKK mRNA [2]; [9]): 57%; percent inhibition of PKK at 1.67 μM (human PKK mRNA [2]; [9]): 70%; percent inhibition of PKK at 5.00 μM (human PKK mRNA [2]; [9]): 95%; IC50 (human PKK mRNA [2]; [10]): 400 nM |
| 547464 (antisense eG*e[5mC]*eT*eT*eG*dT*dG*dT*d[5mC]*dA*d[5mC]*d[5mC]*dT*dT*dT*eG*eG*eA*eA*eG) [compound 547464] | – | – | – | – | – | – | – | – | – | – | % inhibition (human PKK mRNA [1]; Table 9 experiment, HepaRG cells, 20,000 cells per well, electroporation with 5,000 nM antisense oligonucleotide, approx. 24 hours, PKK mRNA by RT-PCR (RTS3454), relative to untreated control cells): 95%; % inhibition (human PKK mRNA [1]; Table 10 experiment, HepaRG cells, 20,000 cells per well, electroporation with 5,000 nM antisense oligonucleotide, approx. 24 hours, PKK mRNA by RT-PCR (RTS3454), relative to untreated control cells): 84%; percent inhibition of PKK at 0.19 μM (human PKK mRNA [2]; [6]): 21%; percent inhibition of PKK at 0.56 μM (human PKK mRNA [2]; [6]): 52%; percent inhibition of PKK at 1.67 μM (human PKK mRNA [2]; [6]): 67%; percent inhibition of PKK at 5.00 μM (human PKK mRNA [2]; [6]): 97%; IC50 (human PKK mRNA [2]; [7]): 600 nM |
| 547615 (antisense eT*e[5mC]*e[5mC]*eT*eA*dT*dA*dT*d[5mC]*dA*d[5mC]*dT*dG*dT*dA*e[5mC]*e[5mC]*eT*eG*eT) [compound 547615] | – | – | – | – | – | – | – | – | – | – | % inhibition (human PKK mRNA [1]; [8]): 84%; percent inhibition of PKK at 0.19 μM (human PKK mRNA [2]; [9]): 20%; percent inhibition of PKK at 0.56 μM (human PKK mRNA [2]; [9]): 26%; percent inhibition of PKK at 1.67 μM (human PKK mRNA [2]; [9]): 41%; percent inhibition of PKK at 5.00 μM (human PKK mRNA [2]; [9]): 84%; IC50 (human PKK mRNA [2]; [10]): 1400 nM |
| 547426 (eG*eA*eG*eT*eA*dA*d[5mC]*d[5mC]*dA*dG*dA*dG*d[5mC]*dT*d[5mC]*e[5mC]*e[5mC]*eT*eT*eG; antisense) [compound 547426] | 19 | 50 | 84 | 93 | 600 | 18 | 35 | 80 | 95 | 700 | % inhibition (human PKK mRNA [1]; Table 8, HepaRG cells, electroporation with 5,000 nM antisense oligonucleotide, approx. 24 hours, PKK mRNA by RT-PCR (RTS3454), relative to untreated control cells): 92% |
| 546833 (eA*e[5mC]*eT*e[5mC]*eT*dA*dA*d[5mC]*dA*dG*dT*dA*dT*d[5mC]*dA*e[5mC]*eT*eG*eT*eA; antisense) [compound 546833] | 8 | 33 | 74 | 94 | 900 | – | – | – | – | – | % inhibition (human PKK mRNA [1]; [5]): 90% |
